According to PubChem BioAssay (NCI):
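Compound exposure: 48 hours, 5 concentrations, 96-well plates. TGI is the concentration that stops growth completely.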

How the values were obtained:
Experiment in all cases: DTP human tumour cell line panel, 48 h
786-0 renal = tested on: 786-0 renal
A498 renal = tested on: A498 renal
A549 NSCLC = tested on: A549 NSCLC
ACHN renal = tested on: ACHN renal
CAKI-1 renal = tested on: CAKI-1 renal
CCRF-CEM leukemia = tested on: CCRF-CEM leukemia
COLO 205 colon = tested on: COLO 205 colon
DLD-1 colon = tested on: DLD-1 colon
DMS 114 small cell lung = tested on: DMS 114 small cell lung
DMS 273 small cell lung = tested on: DMS 273 small cell lung
EKVX NSCLC = tested on: EKVX NSCLC
HCC-2998 colon = tested on: HCC-2998 colon
HCT-116 colon = tested on: HCT-116 colon
HCT-15 colon = tested on: HCT-15 colon
HOP-18 NSCLC = tested on: HOP-18 NSCLC
HOP-62 NSCLC = tested on: HOP-62 NSCLC
HOP-92 NSCLC = tested on: HOP-92 NSCLC
HT29 colon = tested on: HT29 colon
IGROV1 ovarian = tested on: IGROV1 ovarian
K-562 leukemia = tested on: K-562 leukemia
KM12 colon = tested on: KM12 colon
KM20L2 colon = tested on: KM20L2 colon
LOX IMVI melanoma = tested on: LOX IMVI melanoma
LXFL 529 NSCLC = tested on: LXFL 529 NSCLC
M14 melanoma = tested on: M14 melanoma
M19-MEL melanoma = tested on: M19-MEL melanoma
MALME-3M melanoma = tested on: MALME-3M melanoma
MOLT-4 leukemia = tested on: MOLT-4 leukemia
NCI-H226 lung = tested on: NCI-H226 lung
NCI-H23 lung = tested on: NCI-H23 lung
NCI-H460 lung = tested on: NCI-H460 lung
NCI-H522 lung = tested on: NCI-H522 lung
OVCAR-3 ovarian = tested on: OVCAR-3 ovarian
OVCAR-4 ovarian = tested on: OVCAR-4 ovarian
OVCAR-5 ovarian = tested on: OVCAR-5 ovarian
OVCAR-8 ovarian = tested on: OVCAR-8 ovarian
RPMI-8226 leukemia = tested on: RPMI-8226 leukemia
SF-268 CNS = tested on: SF-268 CNS
SF-295 CNS = tested on: SF-295 CNS
SF-539 CNS = tested on: SF-539 CNS
SK-MEL-2 melanoma = tested on: SK-MEL-2 melanoma
SK-MEL-28 melanoma = tested on: SK-MEL-28 melanoma
SK-MEL-5 melanoma = tested on: SK-MEL-5 melanoma
SK-OV-3 ovarian = tested on: SK-OV-3 ovarian
SN12C renal = tested on: SN12C renal
SNB-19 CNS = tested on: SNB-19 CNS
SNB-75 CNS = tested on: SNB-75 CNS
SNB-78 CNS = tested on: SNB-78 CNS
SR leukemia = tested on: SR leukemia
SW-620 colon = tested on: SW-620 colon
TK-10 renal = tested on: TK-10 renal
U251 CNS = tested on: U251 CNS
UACC-257 melanoma = tested on: UACC-257 melanoma
UACC-62 melanoma = tested on: UACC-62 melanoma
UO-31 renal = tested on: UO-31 renal
RXF 393 renal = tested on: RXF 393 renal

For `Cn1ncc2c(c1=O)Nc1ccccc1S2(=O)=O`, the TGI (786-0 renal) was 75.3 µM, the TGI (A498 renal) was > 100 µM and the TGI (A549 NSCLC) was > 100 µM. For the same compound, the TGI (ACHN renal) was > 100 µM, the TGI (CAKI-1 renal) was > 100 µM and the TGI (CCRF-CEM leukemia) was > 100 µM. For the same compound, the TGI (COLO 205 colon) was > 100 µM, the TGI (DLD-1 colon) was > 100 µM and the TGI (DMS 114 small cell lung) was 40.9 µM. For the same compound, the TGI (DMS 273 small cell lung) was > 100 µM, the TGI (EKVX NSCLC) was > 100 µM and the TGI (HCC-2998 colon) was > 100 µM. The TGI (HCT-116 colon) was > 100 µM, the TGI (HCT-15 colon) was > 100 µM and the TGI (HOP-18 NSCLC) was > 100 µM. The TGI (HOP-62 NSCLC) was > 100 µM, the TGI (HOP-92 NSCLC) was > 100 µM and the TGI (HT29 colon) was > 100 µM. For the same compound, the TGI (IGROV1 ovarian) was > 100 µM, the TGI (K-562 leukemia) was > 100 µM and the TGI (KM12 colon) was > 100 µM. For the same compound, the TGI (KM20L2 colon) was > 100 µM, the TGI (LOX IMVI melanoma) was > 100 µM and the TGI (LXFL 529 NSCLC) was > 100 µM. The TGI (M14 melanoma) was > 100 µM, the TGI (M19-MEL melanoma) was > 100 µM and the TGI (MALME-3M melanoma) was > 100 µM. For the same compound, the TGI (MOLT-4 leukemia) was > 100 µM, the TGI (NCI-H226 lung) was > 100 µM and the TGI (NCI-H23 lung) was > 100 µM. For the same compound, the TGI (NCI-H460 lung) was > 100 µM, the TGI (NCI-H522 lung) was > 100 µM and the TGI (OVCAR-3 ovarian) was > 100 µM. For the same compound, the TGI (OVCAR-4 ovarian) was > 100 µM, the TGI (OVCAR-5 ovarian) was > 100 µM and the TGI (OVCAR-8 ovarian) was > 100 µM. For the same compound, the TGI (RPMI-8226 leukemia) was 97.6 µM, the TGI (SF-268 CNS) was > 100 µM and the TGI (SF-295 CNS) was > 100 µM. The TGI (SF-539 CNS) was 49 µM, the TGI (SK-MEL-2 melanoma) was > 100 µM and the TGI (SK-MEL-28 melanoma) was > 100 µM. For the same compound, the TGI (SK-MEL-5 melanoma) was > 100 µM, the TGI (SK-OV-3 ovarian) was > 100 µM and the TGI (SN12C renal) was > 100 µM. The TGI (SNB-19 CNS) was > 100 µM, the TGI (SNB-75 CNS) was > 100 µM and the TGI (SNB-78 CNS) was > 100 µM. The TGI (SR leukemia) was > 100 µM, the TGI (SW-620 colon) was 32.4 µM and the TGI (TK-10 renal) was > 100 µM. For the same compound, the TGI (U251 CNS) was > 100 µM, the TGI (UACC-257 melanoma) was > 100 µM and the TGI (UACC-62 melanoma) was > 100 µM. The TGI (UO-31 renal) was > 100 µM.
In the case of `COC(=O)C1=C(C)N(NC(=O)Nc2ccccc2)C2(N)N(NC(=O)Nc3ccccc3)C(C)=C(C(=O)OC)C12C(=O)OC` (stereo not drawn), the TGI (786-0 renal) is reported as > 100 µM, the TGI (A498 renal) is reported as > 100 µM and the TGI (A549 NSCLC) is reported as > 100 µM. The TGI (ACHN renal) was > 100 µM, the TGI (CAKI-1 renal) was 82.9 µM and the TGI (CCRF-CEM leukemia) was > 100 µM. The TGI (COLO 205 colon) was > 100 µM, the TGI (DLD-1 colon) was > 100 µM and the TGI (DMS 114 small cell lung) was > 100 µM. The TGI (DMS 273 small cell lung) was > 100 µM, the TGI (HCC-2998 colon) was > 100 µM and the TGI (HCT-116 colon) was > 100 µM. The TGI (HCT-15 colon) was > 100 µM, the TGI (HOP-18 NSCLC) was > 100 µM and the TGI (HOP-92 NSCLC) was > 100 µM. For the same compound, the TGI (HT29 colon) was > 100 µM, the TGI (IGROV1 ovarian) was 55.5 µM and the TGI (K-562 leukemia) was > 100 µM. The TGI (KM20L2 colon) was > 100 µM, the TGI (LOX IMVI melanoma) was > 100 µM and the TGI (LXFL 529 NSCLC) was > 100 µM. For the same compound, the TGI (M14 melanoma) was > 100 µM, the TGI (M19-MEL melanoma) was 78.7 µM and the TGI (MALME-3M melanoma) was > 100 µM. For the same compound, the TGI (MOLT-4 leukemia) was 71.3 µM, the TGI (NCI-H226 lung) was > 100 µM and the TGI (NCI-H23 lung) was > 100 µM. For the same compound, the TGI (NCI-H460 lung) was > 100 µM, the TGI (NCI-H522 lung) was > 100 µM and the TGI (OVCAR-3 ovarian) was > 100 µM. The TGI (OVCAR-4 ovarian) was > 100 µM, the TGI (OVCAR-5 ovarian) was > 100 µM and the TGI (OVCAR-8 ovarian) was > 100 µM. For the same compound, the TGI (RPMI-8226 leukemia) was 78.5 µM, the TGI (RXF 393 renal) was > 100 µM and the TGI (SF-268 CNS) was > 100 µM. The TGI (SK-MEL-2 melanoma) was > 100 µM, the TGI (SK-MEL-28 melanoma) was > 100 µM and the TGI (SK-OV-3 ovarian) was > 100 µM. For the same compound, the TGI (SN12C renal) was > 100 µM, the TGI (SNB-75 CNS) was > 100 µM and the TGI (SNB-78 CNS) was 84.6 µM. For the same compound, the TGI (SW-620 colon) was > 100 µM, the TGI (TK-10 renal) was > 100 µM and the TGI (U251 CNS) was > 100 µM. The TGI (UACC-257 melanoma) was > 100 µM, the TGI (UACC-62 melanoma) was > 100 µM and the TGI (UO-31 renal) was > 100 µM.
